Laboratory results from patent US12331029B2, “Orexin 1 receptor antagonists” (NXERA PHARMA UK LIMITED, priority 2018, dated 2025).

Key:
[1] = target: T1, Human OX1 receptor (Homo sapiens, UniProt O43613); experiment: [3H]-radioligand binding assay, human OX1 receptor membranes
T1 sequence (O43613 1-425): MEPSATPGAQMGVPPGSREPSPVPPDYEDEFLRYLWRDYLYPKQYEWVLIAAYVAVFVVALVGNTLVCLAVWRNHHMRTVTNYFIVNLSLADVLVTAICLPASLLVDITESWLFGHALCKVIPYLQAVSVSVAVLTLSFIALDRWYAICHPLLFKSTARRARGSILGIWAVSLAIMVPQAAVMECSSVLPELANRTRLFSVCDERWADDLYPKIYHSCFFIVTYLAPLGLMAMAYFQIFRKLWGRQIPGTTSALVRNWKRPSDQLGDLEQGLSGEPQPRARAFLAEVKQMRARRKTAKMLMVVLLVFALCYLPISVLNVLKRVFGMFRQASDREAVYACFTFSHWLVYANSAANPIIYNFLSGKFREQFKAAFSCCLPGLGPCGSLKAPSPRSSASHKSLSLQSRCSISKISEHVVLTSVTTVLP
Method: (§3) Human OX1 or OX2 receptor were cloned into Invitrogen's (ThermoFisher Scientific, UK) Bac-to-Bac Baculovirus Expression System. P0 baculovirus was generated by transfecting SF9 cells with bacmid DNA using Cellfectin® II transfection reagent (ThermoFisher Scientific, UK, Catalog number 10362-100). Following P0 generation P1 virus was then generated ready for large scale infection and membrane preparation. SF21 cells were grown in expression medium ESF921 (Expression Systems, USA, catalog number 96-001-01) supplemented with 10% heat-inactivated FBS and 1% Pen/Strep and were infected at a cell density of 2.5×10^6 cells/mL and a multiplicity of infection of 1.0 for both human OX1R and OX2R. Incubation was carried out at over 48 h in a shaking incubator set at 27° C. The cell culture was then centrifuged at 2,500 rcf for 10 min at 4° C. The pellets were resuspended in cold PBS supplemented with Roche's Complete EDTA-free protease inhibitor cocktail tablets (Roche Applied Sciences, catalog number 05056489001), 1 mM PMSF and 1 mM EDTA. The resuspended cell paste was then centrifuged at 3,273 rcf for 12 min at 4° C. The supernatant was discarded and the pellet frozen at −80° C. The cell pellet from a 4 L culture was resuspended in buffer containing 50 mM HEPES pH 7.5, 150 mM NaCl, 8 Roche EDTA-Free protease inhibitor cocktail tablets and 1 mM PMSF. The suspension was left stirring at rt for 1 h and then homogenised for 90 s at 9,500 rpm using a VDI 25 (VWR, USA) homogeniser. The cells were then lysed using a Microfluidiser processor M-110L Pneumatic (Microfluidics, USA) at 60 PSI and membranes collected by ultracentrifugation at 204.7 k×g for 1 h. The supernatant was discarded and the pellet was resuspended and homogenised in 90 s at 9,500 rpm in 50 mL (25 mL for each 2 L culture) of buffer containing 50 mM Hepes pH 7.5, 150 mM NaCl, 3 Roche EDTA-free protease inhibitor cocktail tablets and 1 mM PMSF. The resulting membranes were then stored at −80° C.
(§4) [^3H]-radioligand binding assay. After thawing, membrane homogenates were re-suspended in the binding buffer (8.5 mM HEPES, pH 7.4, 1.3 mM CaCl2, 1.2 mM MgSO4, 118 mM NaCl, 4.7 mM KCl, 4 mM NaHCO3, 1.2 mM KH2PO4, 11 mM glucose) to a final assay concentration of 6.4 μg (OX1) or 1.4 μg (OX2) protein per well. Saturation isotherms were determined by the addition of various concentrations (0-30 nM) of [^3H]-4-(2,6-difluoro-4-methoxybenzyl)-2-(5,6-dimethoxypyridin-3-yl)-2H-1,2,4-benzothiadiazin-3(4H)-one 1,1-dioxide (Christopher et al, MedChemComm., 2015, 6, 947-955) in a total reaction volume of 250 μL for 90 min at rt. At the end of the incubation, membranes were filtered onto a 96-well GF/B filter pre-incubated with 0.5% polyethylenimine, with a Tomtec cell harvester and washed 5 times with 0.5 mL distilled water. Non-specific binding (NSB) was measured in the presence of 3.33 μM [4-(5-chloro-1,3-benzoxazol-2-yl)-7-methyl-1,4-diazepan-1-yl][5-methyl-2-(2H-1,2,3-triazol-2-yl)phenyl]methanone (Wertz et al, Angew. Chem. Int. Ed., 2011, 50, 11511-11515). Radioactivity on the filter was counted (1 min) on a Microbeta radiometric plate counter (Perkin Elmer) after addition of 50 μL of scintillation fluid (LabLogic: Part #SG-BXX-14). […] IC50 values were derived from the inhibition curve and the equilibrium dissociation constant (Ki) values were calculated using the Cheng-Prusoff equation.

[2] = target: T1, Human OX1 receptor; experiment: IPone accumulation assay, CHO cells expressing human OX1 receptor; assay type: cell-based; conditions: antagonism of orexin A (EC80) induced inositol phosphate turnover, read-out: fpKb average OX1 (converted)
Method: (§1) Stable cell lines for the human OX1R and OX2R receptors were generated through the transfection of CHO cells using the transfection reagent Genejuice (Novagen number 70967) and cDNA coding for either the human OX1R or OX2R. Cells were cultured in Sigma Nutrient Mixture F-12 Ham media (catalog number N6658) supplemented with 10% heat-inactivated FBS. Forty-eight hours after transfection, cells were harvested and placed under geneticin selection by culturing in Sigma Nutrient Mixture F-12 Ham media supplemented with 10% heat-inactivated FBS and geneticin (ThermoFisher Catalog number: 10131035). Selection of the final stable clone for each receptor was made on the basis of receptor expression, assay signal to noise and robustness though increasing passage. Selected clones for the human OX1R and OX2R were then frozen down into liquid nitrogen using Cell Freezing Medium-DMSO (Sigma-Aldrich catalog number: C6164).
(§2) IPone accumulation assay. A CHO cell line stably expressing either human OX1 or OX2 receptor was used with the IPone HTRF assay kit (CisBio: Part #62IPAPEJ) to measure receptor activation. The assay was optimised to measure the ability (potency; fpKb) of antagonists to reduce agonist (orexin A)-induced inositol phosphate turnover. Briefly, cells were plated onto half area 96-well white walled plates at a density of 12,500 cells/well. Sixteen hours post-plating cell growth media was replaced with antagonist concentration-response curve diluted in stimulation buffer (supplied with the kit). Cells were incubated in a humidified incubator (37° C.) for 30 min before an EC80 challenge concentration (˜20 nM (OX1) and 40 nM (OX2)) of orexin A (Tocris catalogue number 1455). After 30 min stimulation in a humidified incubator (37° C.) the assay was terminated by the addition of detection mixture as per manufacturer's instructions. The concentration of compound which reduced orexin-A stimulated turnover of inositol phosphates by 50% (IC50) was calculated by fitting to a four parameter sigmoidal dose response curve. The IC50 values were converted to fpKB values using the orexin A pEC50 value estimated on each plate as well as the challenge concentration interpolated from the orexin A control curve.

[3] = target: T2, Human OX2 receptor (Homo sapiens, UniProt O43614); experiment: IPone accumulation assay, CHO cells expressing human OX2 receptor; assay type: cell-based; conditions: antagonism of orexin A (EC80) induced inositol phosphate turnover, read-out: fpKb average OX2
T2 sequence (O43614 1-444): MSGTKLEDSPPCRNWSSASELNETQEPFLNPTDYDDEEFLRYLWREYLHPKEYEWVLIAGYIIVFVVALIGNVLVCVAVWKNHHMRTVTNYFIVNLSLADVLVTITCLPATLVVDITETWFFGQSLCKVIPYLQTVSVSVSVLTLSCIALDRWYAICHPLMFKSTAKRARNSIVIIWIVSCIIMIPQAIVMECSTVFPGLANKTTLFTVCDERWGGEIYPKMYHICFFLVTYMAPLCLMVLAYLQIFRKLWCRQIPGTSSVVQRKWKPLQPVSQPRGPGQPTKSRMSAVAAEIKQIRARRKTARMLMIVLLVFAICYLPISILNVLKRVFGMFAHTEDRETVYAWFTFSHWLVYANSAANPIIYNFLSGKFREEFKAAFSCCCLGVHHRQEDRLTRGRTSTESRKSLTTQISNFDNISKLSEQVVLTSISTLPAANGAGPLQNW
Method: as §1
as §2, with “Cells were incubated in a humidified incubator (37° C.) for 30 min before an EC80 challenge concentration (˜20 nM (OX1) and 40 nM (OX2)) of orexin A (Tocris catalogue number 1455).” left out

[4] = target: T2, Human OX2 receptor; experiment: [3H]-radioligand binding assay, human OX2 receptor membranes
Method: as §3, §4

Ki [1]	Kb [2]	Kb [3]	Ki [4]	Compound
31.6 nM	251 nM	> 631 nM	> 1260 nM	COCc1cccc(-n2nccn2)c1C(=O)N[C@H]1CCC[C@@H]1COc1ccc(F)cc1 [Example 17, N-[(1S,2S)-2-[(4-fluorophenoxy)methyl]cyclopentyl]-2-(methoxymethyl)-6-(triazol-2-yl)benzamide]
7.94 nM	63.1 nM	> 1260 nM	> 5010 nM	COCc1ccc(-n2nccn2)c(C(=O)N[C@H]2CCC[C@@H]2COc2ccc(F)cc2)n1 [Example 18, N-[(1S,2S)-2-[(4-fluorophenoxy)methyl]cyclopentyl]-6-(methoxymethyl)-3-(triazol-2-yl)pyridine-2-carboxamide]
7.94 nM	79.4 nM	> 1260 nM	> 5010 nM	COCc1ccc(-n2nccn2)c(C(=O)N[C@H]2CCC[C@@H]2COc2ccc(Cl)cc2)n1 [Example 19, N-[(1S,2S)-2-[(4-chlorophenoxy)methyl]cyclopentyl]-6-(methoxymethyl)-3-(triazol-2-yl)pyridine-2-carboxamide]
7.94 nM	100 nM	> 1260 nM	> 5010 nM	COc1ccc(-n2nccn2)c(C(=O)N[C@H]2CCC[C@@H]2COc2ccc(F)cc2)n1 [Example 20, N-[(1S,2S)-2-[(4-fluorophenoxy)methyl]cyclopentyl]-6-methoxy-3-(triazol-2-yl)pyridine-2-carboxamide]
12.6 nM	794 nM	> 631 nM	> 5010 nM	COc1ccc(-n2nccn2)c(C(=O)N[C@H]2CCC[C@@H]2COc2ccc(Cl)cc2)n1 [Example 21, N-[(1S,2S)-2-[(4-chlorophenoxy)methyl]cyclopentyl]-6-methoxy-3-(triazol-2-yl)pyridine-2-carboxamide]
3.98 nM	25.1 nM	> 1260 nM	> 3160 nM	Cc1ccc(-n2nccn2)c(C(=O)N[C@H]2CCC[C@@H]2COc2ccc(F)cc2)n1 [Example 22, N-[(1S,2S)-2-[(4-fluorophenoxy)methyl]cyclopentyl]-6-methyl-3-(triazol-2-yl)pyridine-2-carboxamide]
1.26 nM	39.8 nM	> 1260 nM	> 3980 nM	Cc1ccc(-n2nccn2)c(C(=O)N[C@H]2CCC[C@@H]2COc2ccc(Cl)cc2)n1 [Example 23, N-[(1S,2S)-2-[(4-chlorophenoxy)methyl]cyclopentyl]-6-methyl-3-(triazol-2-yl)pyridine-2-carboxamide]
15.8 nM	15.8 nM	> 631 nM	> 3980 nM	Cc1ccc(-c2ncccn2)c(C(=O)N[C@H]2CCC[C@@H]2COc2ccc(F)cc2)n1 [Example 24, N-[(1S,2S)-2-[(4-fluorophenoxy)methyl]cyclopentyl]-6-methyl-3-pyrimidin-2-yl-pyridine-2-carboxamide]
7.94 nM	79.4 nM	> 631 nM	> 3160 nM	O=C(N[C@H]1CCC[C@@H]1COc1ccc(F)cc1)c1ncccc1-c1ncccn1 [Example 25, N-[(1S,2S)-2-[(4-fluorophenoxy)methyl]cyclopentyl]-3-pyrimidin-2-yl-pyridine-2-carboxamide]
12.6 nM	251 nM	> 794 nM	> 3160 nM	O=C(N[C@H]1CCC[C@@H]1COc1ccc(F)cc1F)c1ncccc1-c1ncccn1 [Example 26, N-[(1S,2S)-2-[(2,4-difluorophenoxy)methyl]cyclopentyl]-3-pyrimidin-2-yl-pyridine-2-carboxamide]
20 nM	316 nM	> 2510 nM	> 5010 nM	O=C(N[C@H]1CCC[C@@H]1COc1ccc(Cl)cc1)c1ncccc1-c1ncccn1 [Example 27, N-[(1S,2S)-2-[(4-chlorophenoxy)methyl]cyclopentyl]-3-pyrimidin-2-yl-pyridine-2-carboxamide]
25.1 nM	100 nM	> 2510 nM	> 1260 nM	O=C(N[C@H]1CCC[C@@H]1COc1ccc(F)c(F)c1)c1ncccc1-c1ncccn1 [Example 28, N-[(1S,2S)-2-[(3,4-difluorophenoxy)methyl]cyclopentyl]-3-pyrimidin-2-yl-pyridine-2-carboxamide]
6.31 nM	39.8 nM	> 631 nM	794 nM	COc1nccc(-n2nccn2)c1C(=O)N[C@H]1CCC[C@@H]1COc1ccc(F)cc1 [Example 29, N-[(1S,2S)-2-[(4-fluorophenoxy)methyl]cyclopentyl]-2-methoxy-4-(triazol-2-yl)pyridine-3-carboxamide]
7.94 nM	25.1 nM	> 631 nM	> 1260 nM	COc1nccc(-c2ncccn2)c1C(=O)N[C@H]1CCC[C@@H]1COc1ccc(F)cc1 [Example 30, N-[(1S,2S)-2-[(4-fluorophenoxy)methyl]cyclopentyl]-2-methoxy-4-pyrimidin-2-yl-pyridine-3-carboxamide]
20 nM	50.1 nM	> 2510 nM	2000 nM	COc1cccc(-c2ncccn2)c1C(=O)N[C@H]1CCC[C@@H]1COc1ccc(F)cn1 [Example 32, N-[(1S,2S)-2-[(5-fluoro-2-pyridyl)oxymethyl]cyclopentyl]-2-methoxy-6-pyrimidin-2-yl-benzamide]
